Experimental data as given in ChEMBL document CHEMBL2074093, “The predominant contribution of oligopeptide transporter PepT1 to intestinal absorption of beta-lactam antibiotics in the rat small intestine” (J Pharm Pharmacol, 1997).

What follows are compounds tested against T1, Solute carrier family 15 member 1 (Rattus norvegicus) (UniProt P51574) (assay: TP_TRANSPORTER: uptake in Xenopus laevis oocytes). Details: Oocyte.
T1 sequence (whole entry): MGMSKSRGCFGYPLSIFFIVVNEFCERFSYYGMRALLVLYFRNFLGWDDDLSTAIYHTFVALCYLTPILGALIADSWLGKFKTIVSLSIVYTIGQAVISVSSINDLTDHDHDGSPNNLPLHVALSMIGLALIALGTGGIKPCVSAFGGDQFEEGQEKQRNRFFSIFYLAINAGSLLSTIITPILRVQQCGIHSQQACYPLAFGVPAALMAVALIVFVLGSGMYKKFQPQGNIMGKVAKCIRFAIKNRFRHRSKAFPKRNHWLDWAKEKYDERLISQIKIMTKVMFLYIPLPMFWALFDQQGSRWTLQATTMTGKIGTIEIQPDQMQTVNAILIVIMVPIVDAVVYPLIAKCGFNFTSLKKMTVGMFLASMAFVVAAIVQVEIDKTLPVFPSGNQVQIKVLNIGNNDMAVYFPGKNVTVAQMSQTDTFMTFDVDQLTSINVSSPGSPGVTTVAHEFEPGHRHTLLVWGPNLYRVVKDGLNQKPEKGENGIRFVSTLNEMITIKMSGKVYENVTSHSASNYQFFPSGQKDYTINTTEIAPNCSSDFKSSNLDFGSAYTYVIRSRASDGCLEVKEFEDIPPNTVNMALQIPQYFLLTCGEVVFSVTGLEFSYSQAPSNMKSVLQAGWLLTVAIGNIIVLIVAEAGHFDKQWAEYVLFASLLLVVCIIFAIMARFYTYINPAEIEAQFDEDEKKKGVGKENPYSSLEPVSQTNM
Format: functional, cell-based

Row | Activity | Structure (SMILES)
1 | substrate [+] | CC1=C(C(=O)O)N2C(=O)[C@@H](NC(=O)[C@H](N)c3ccccc3)[C@H]2SC1
2 | substrate [+] | C=CC1=C(C(=O)O)N2C(=O)[C@@H](NC(=O)/C(=N\OCC(=O)O)c3csc(N)n3)[C@H]2SC1
3 | substrate [+] | CC1=C(C(=O)O)N2C(=O)[C@@H](NC(=O)[C@H](N)c3ccc(O)cc3)[C@H]2SC1
